Key:
s.c. WSU-DLCL2 tumors = experiment: Protocol 162: CD20-PRIT and 1-step RIT efficacy and biodistribution; assay type: in vivo, SCID mice; conditions: multiple injections of 20 μCi (PRIT)
Experimental: The aim of this study was to show proof-of-concept of the treatment regimen developed for CEA-PRIT directed against an alternative target: cluster of differentiation 20 (CD20). The therapeutic efficacy was evaluated after 3 cycles of CD20-PRIT in mice bearing subcutaneous WSU-DLCL2 tumors. Comparisons were also made with: 1-step CD20-RIT, using BsAbs that were pre-incubated with ^212Pb-DOTAM before injection; with rituximab, a type I monoclonal antibody directed against CD20 and a reference in treatment of CD20+ diseases; and with GA101, a type II monoclonal antibody also directed against CD20.
Animals were treated according to the experimental schedule illustrated in FIG. 59. Solid WSU-DLCL2 xenografts were established in SCID mice aged 8 weeks on study day 0 by subcutaneous injection of 1.5×10^5 cells into the right flank. […]
Mice in groups H, I, and L were sacrificed and necropsied for biodistribution purposes 24 hours after their first and only injection of ^212Pb-DOTAM or ^212Pb-DOTAM-BsAb; groups J and K were sacrificed and necropsied 24 hours after their second and third ^212Pb-DOTAM injection, respectively. […] Collected samples were weighed and then measured for radioactivity using a 2470 WIZARD^2 automatic gamma counter (PerkinElmer), and the percent injected dose per gram of tissue (% ID/g) subsequently calculated, including corrections for decay and background. […]

s.c. BxPC3 tumors = experiment: Protocol 103: efficacy, biodistribution, tolerability of CEA-PRIT; assay type: in vivo, SCID mice
Experimental: Step 1: Administration of a BsAb (i.v. or i.p.): The BsAb used in the studies binds Pb-DOTAM with high affinity and targets the tumor e.g. via CEA.
Step 2: Administration of CA (i.v. or i.p.): To allow efficient tumor accumulation of ^212Pb-DOTAM, circulating BsAb needs to be neutralized in the blood using a CA that blocks ^212Pb-DOTAM binding to unbound BsAb, without penetrating into the tumor and consequently blocking the pretargeted sites. The CA is administered once the BsAb has accumulated to a sufficient degree in the tumor, generally after 4-10 days. […]
The body weight (BW) of the study animals was measured at least 3 times per week, with additional measurements as needed depending on the health status. […]
Blood was collected at termination from the venous sinus using retro-orbital bleeding, followed by additional tissue harvest for radioactive measurements and/or histological analysis, as mandated by the protocols. […] Organs and tissues collected for biodistribution purposes were weighed and measured for radioactivity using a 2470 WIZARD^2 automatic gamma counter (PerkinElmer), and the percent injected dose per gram of tissue (% ID/g) subsequently calculated, including corrections for decay and background. […]
where d indicates treatment day and 0 the baseline value. […] Tumor regression (TR) was calculated according to: […]

NC(=O)CN1CCN(CC(N)=O)CCN(CC(N)=O)CCN(CC(N)=O)CC1.[212Pb+2] [^212Pb-DOTAM]
tolerability (BW development) (s.c. WSU-DLCL2 tumors): well tolerated | BW loss (s.c. BxPC3 tumors; 10 μCi, even at multiple injections): mild | radioactivity level tolerability (s.c. BxPC3 tumors; 30 μCi under the applied conditions): approaching the maximum tolerated activity

From patent US20220031871A1, “ANTIBODIES FOR CHELATED RADIONUCLIDES AND CLEARING AGENTS” (Hoffmann-La Roche Inc., priority 2018, published 2022)
